Ends that are not written are not given here.
System: SIRT6
Test: SIRT6 expression by immunohistochemistry in Normal Human Epidermal Keratinocytes
Type: cell-based
Settings: 1% and 3% of a 50 ppm peptide solution, 48 h treatment, FIG. 2
Procedure: SIRT6 is a member of the conserved family of sirtuin proteins which are associated with metabolism and longevity. SIRT6 is a histone 3, lysine 9 (H3K9) deacetylase and is primarily involved in DNA repair and telomere stability. The peptide of (SEQ ID No. 5) Gly-Ala-Gly-Val-Ser-Ala-Glu-NH2 was tested for Sirt6 stimulating activity as follows.
• Normal Human Epidermal Keratinocytes p3 • EpiLife Medium (Invitrogen) • Human Keratinocyte Growth Supplement (Invitrogen) • 1× Dulbecco's Phosphate Buffered Saline (DPBS) made from: • 10× DPBS (Mediatech) • Distilled, Deionized Water • Peptide of SEQ ID No. 5 • Rabbit polyclonal antibody to Sirt6 (Abcam) • Alexa Fluor 488 donkey anti-rabbit IgG (H+L) (Invitrogen) • Triton-X 100 (Fisher) • Albumin, Bovine (Sigma) • Vectashield with 4′,6-diamidino-2-phenylindole (DAPI) (Vector)
• 1. Cells were plated into 4 well chamber slides @ 10,000 cells/chamber and incubated at 37° C., 5% CO2 & 95% humidity for 24 hours. • 2. The peptide of SEQ ID No. 5 was prepared as follows: • 2.1. Dissolved 5 mg peptide in 5 ml medium to make a 1000 ppm stock solution. • 2.2. Diluted the stock solution to 50 ppm by combining 400 μl 1000 ppm stock solution with 7.6 ml medium • 2.3. Prepared a 3% of the 50 ppm solution by combining 1.5 ml 50 ppm stock with 48.5 ml medium • 2.4. Prepared a 1% of the 50 ppm solution by combining 0.5 ml 50 ppm stock with […] medium • 3. […]

Gly-Ala-Gly-Val-Ser-Ala-Glu-NH2 (GAGVSAE-NH2) [SEQ ID No. 5]
SIRT6 expression: dose dependent increase in SIRT6 expression
